The target in experiment [1] is EZH2 (Homo sapiens, UniProt Q15910). The experiment can be described thus: EZH2 assay (rPRC2, 3H SAM methyl transfer to biotinylated oligonucleosomes, FlashPlate). It counts as biochemical. The method, then: EZH2 Assay: Assays were carried out by mixing rPRC2 together with biotinylated oligonucleosome substrates in the presence of the radio-labeled enzyme co-factor, S-adenosyl-L-methionine (^3H SAM) (Perkin Elmer) and monitoring the enzymatically mediated transfer of tritiated methyl groups from ^3H SAM to histone lysine residues. The amount of resulting tritiated methyl histone product was measured by first capturing the biotinylated oligonucleosomes in streptavidin (SAV) coated FlashPlates (Perkin Elmer), followed by a wash step to remove un-reacted ^3H SAM, and then counting on a TopCount NXT 384 well plate scintillation counter (Perkin Elmer). The final assay conditions for EZH2 were as follows: 50 mM Tris Buffer pH 8.5, 1 mM DTT, 69 μM Brij-35 detergent, 5.0 mM MgCl2, 0.1 mg/mL BSA, 0.2 μM ^3H SAM, 0.2 μM biotinylated oligonucleosomes, 3.6 μM H3K27me3 peptide and 2 nM EZH2.
EZH2, sequence (Q15910 whole entry): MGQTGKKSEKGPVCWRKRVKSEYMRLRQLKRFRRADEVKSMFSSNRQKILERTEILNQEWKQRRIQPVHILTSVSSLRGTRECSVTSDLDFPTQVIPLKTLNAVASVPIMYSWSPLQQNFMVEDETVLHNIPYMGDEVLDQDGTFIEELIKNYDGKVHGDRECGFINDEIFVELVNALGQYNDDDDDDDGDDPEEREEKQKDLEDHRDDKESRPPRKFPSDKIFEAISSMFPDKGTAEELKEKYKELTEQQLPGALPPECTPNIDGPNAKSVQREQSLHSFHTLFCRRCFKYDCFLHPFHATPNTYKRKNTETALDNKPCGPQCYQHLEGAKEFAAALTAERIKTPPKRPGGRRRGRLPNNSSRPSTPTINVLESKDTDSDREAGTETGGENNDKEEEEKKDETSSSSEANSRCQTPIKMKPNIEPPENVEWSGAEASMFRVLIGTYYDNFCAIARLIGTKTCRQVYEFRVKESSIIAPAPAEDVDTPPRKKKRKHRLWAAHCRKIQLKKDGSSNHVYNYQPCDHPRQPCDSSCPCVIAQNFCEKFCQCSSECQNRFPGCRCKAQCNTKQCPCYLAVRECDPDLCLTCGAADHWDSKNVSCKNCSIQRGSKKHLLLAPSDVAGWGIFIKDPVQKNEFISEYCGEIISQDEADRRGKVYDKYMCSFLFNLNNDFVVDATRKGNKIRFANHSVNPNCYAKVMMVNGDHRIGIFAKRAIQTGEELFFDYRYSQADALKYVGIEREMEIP
EZH2, sequence (O75530 whole entry partner): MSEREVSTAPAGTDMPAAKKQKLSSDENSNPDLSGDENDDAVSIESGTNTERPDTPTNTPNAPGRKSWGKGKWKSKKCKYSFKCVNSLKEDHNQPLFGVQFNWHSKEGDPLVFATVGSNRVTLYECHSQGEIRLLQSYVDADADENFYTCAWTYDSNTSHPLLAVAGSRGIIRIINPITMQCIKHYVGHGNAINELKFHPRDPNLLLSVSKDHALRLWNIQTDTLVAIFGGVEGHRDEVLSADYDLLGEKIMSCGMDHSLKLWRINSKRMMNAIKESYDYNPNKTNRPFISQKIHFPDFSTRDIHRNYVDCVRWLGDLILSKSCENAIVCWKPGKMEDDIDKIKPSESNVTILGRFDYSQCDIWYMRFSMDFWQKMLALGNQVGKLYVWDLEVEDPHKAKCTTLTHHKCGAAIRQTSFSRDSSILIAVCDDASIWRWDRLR
EZH2, sequence (Q15022 whole entry partner): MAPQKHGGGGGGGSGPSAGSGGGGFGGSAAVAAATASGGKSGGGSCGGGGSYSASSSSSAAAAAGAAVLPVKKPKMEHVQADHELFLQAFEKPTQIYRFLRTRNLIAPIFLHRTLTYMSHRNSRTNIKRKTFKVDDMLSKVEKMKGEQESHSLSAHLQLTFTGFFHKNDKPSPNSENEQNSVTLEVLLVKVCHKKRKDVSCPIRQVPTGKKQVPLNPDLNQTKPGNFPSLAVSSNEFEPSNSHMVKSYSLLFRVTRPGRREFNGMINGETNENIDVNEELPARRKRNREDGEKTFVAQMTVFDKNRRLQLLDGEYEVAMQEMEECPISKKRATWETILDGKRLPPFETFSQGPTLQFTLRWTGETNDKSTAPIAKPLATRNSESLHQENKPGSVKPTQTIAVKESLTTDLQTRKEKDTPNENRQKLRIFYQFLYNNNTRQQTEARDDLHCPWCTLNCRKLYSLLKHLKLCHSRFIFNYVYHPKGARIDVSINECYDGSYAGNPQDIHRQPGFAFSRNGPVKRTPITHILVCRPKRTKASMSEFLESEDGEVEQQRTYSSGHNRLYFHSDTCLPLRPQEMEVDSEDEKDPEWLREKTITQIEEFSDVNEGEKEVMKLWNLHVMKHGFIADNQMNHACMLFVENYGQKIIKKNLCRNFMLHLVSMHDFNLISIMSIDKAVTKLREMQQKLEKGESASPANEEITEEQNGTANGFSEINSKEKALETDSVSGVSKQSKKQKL
A 12.5 μL volume of the HMT enzyme, H3K27me3 peptide and oligonucleosome substrate in assay buffer was added to each well of the assay plate using a Multidrop Combi (ThermoFisher). Compounds were pre-incubated with the enzyme for 20 min, followed by initiation of the methyltransferase reaction by addition of 12.5 μL of ^3H SAM in assay buffer (final volume=25 μL). The final concentrations of compounds ranged from a top default concentration of 80 μM down to 0.16 μM in ten 2-fold dilution steps. Reactions were carried out for 60 minutes and quenched with 20 μL per well of 1.96 mM SAH, 50 mM Tris pH 8.5, 200 mM EDTA. Stopped reactions were transferred to SAV coated Flashplates (Perkin Elmer), incubated for 120 min, washed with a plate washer, and then read on the TopCount NXT (1.0 min/well) to measure the amount of methyl histone product formed during the reaction.

The test system of experiment [2] is H3K27me3 mark in HeLa cells. The experiment can be described thus: H3K27me3 Alpha Hela Assay (AlphaLISA). It counts as cell-based. The note with it: Homo sapiens, 72 hrs, read-out: EZH2_Cell_H3K27me3_Alpha_HeLa (EC50_K27me3). As for the experimental part:
Ten different doses of each test compound (in a series of 3-fold dilutions) were plated in duplicate 384-well tissue culture treated plates (Catalog #781080; Greiner Bio One; Monroe, N.C.). Hela cells grown in culture were trypsinized and counted using a Countess® cell counter (Catalog # C10281; Life Technologies, Grand Island, N.Y.). Cell were diluted to 67,000 cells per mL in 10% DMEM (Catalog #10569-010 Life Technologies, Grand Island, N.Y.) and 15 μL (1,000 cells) were plated into each well using the Biotek MicroFlo™ Select Dispenser (BioTek Instruments, Inc. Vermont, USA),) of the 384-well plate. Plates were incubated at 37° C./5% CO2 for 72 hrs. One of the duplicate plates was processed for HeLa assay and the other for viability.
To the plate processed for AlphaLISA was added 5 μL per well Cell-Histone Lysis buffer (1λ) (Catalog # AL009F1 Perkin Elmer; Waltham, Mass.) and the plate was incubated at RT for 30 minutes on a plate shaker with low speed (Model#4625-Q Thermo Scientific; Waltham, Mass.). Then, 10 μL per well Histone Extraction buffer (catalog # AL009F2; Perkin Elmer; Waltham, Mass.) was added and the plate further incubated at RT for 20 min on plate shaker with low speed. To each well was then added 10 μL per well of a 5× mix of anti-K27me3 acceptor beads plus Biotinylated anti-Histone H3 (C-ter) Antibody (diluted to 3 nM final) (Catalog #AL118 Perkin Elmer; Waltham, Mass.). Dilution of the acceptor beads and then anti-Histone H3 was with 1× Histone Detection buffer (Catalog # AL009F3 Perkin Elmer; Waltham, Mass.) which was produced diluted from the 10× stock provided. The plate was sealed with an aluminum plate sealer and incubated at 23° C. for 60 min. We then added 10 μL 5× solution of Streptavidin Donor beads (Catalog #6760002 Perkin Elmer; Waltham, Mass.) (20 μg/mL final in 1× Histone Detection Buffer), sealed the plate with Aluminum plate sealer and incubated at 23° C. for 30 min. The plates were then read using an EnVision-Alpha Reader (model #2104 Perkin Elmer; Waltham, Mass.).
Data from both assays was analyzed using Assay Assistant (Constellation Pharmaceuticals In-house product) and Activity Base (IDBS Ltd, Surrey, UK) template. Data files were imported to Assay Assistant and assay conditions were specified. A unique Analysis ID was created and the data files exported to Activity Base. An analysis template was created on Activity Base to measure dose-dependent inhibition of H3K27me3 mark and cell viability respectively. Readout of DMSO wells were used to normalize the data. Resulting curves were fitted using Activity base software Model 205 (IDBS Ltd, Surrey, UK). The data was checked for quality, validated and integrated in excel format using SARview (IDBS Ltd, Surrey, UK).
(In general: Bead proximity is the source of the signal in Alpha formats.)

By IC50 is commonly meant the concentration that inhibits the measured activity by half.

Where two headings read alike, the source gives them in different places.

In experiment [1], `COc1cc(C)[nH]c(=O)c1CNC(=O)c1c(C)n([C@H](C)C2CCN(Cc3ccncc3F)CC2)c2ccccc12` [Compound 260] came in with an IC50 below 100 nM. Besides, the EC50 in experiment [2] was below 400 nM.

For the compound `COc1cc(C)[nH]c(=O)c1CNC(=O)c1c(C)n([C@H](C)C2CCN(CC(C)(C)C#N)CC2)c2ccccc12` [Compound 185], in experiment [1], the IC50 is below 100 nM. The EC50 in experiment [2] is 400 to 2000 nM.

With `COc1cc(C)[nH]c(=O)c1CNC(=O)c1c(C)n([C@H](C)C2CCN(C(=O)CC#N)CC2)c2ccccc12` [Compound 186], the IC50 in experiment [1] was below 100 nM. Besides, in experiment [2], the EC50 fell in the range of 400 to 2000 nM.

With `COc1cc(C)[nH]c(=O)c1CNC(=O)c1c(C)n([C@H](C)C2CCN(Cc3cc(C)ncn3)CC2)c2ccccc12` [Compound 266], the IC50 in experiment [1] is below 100 nM. Further, in experiment [2], the EC50 was below 400 nM.

In the case of `COc1cc(C)[nH]c(=O)c1CNC(=O)c1c(C)n([C@H](C)C2CCN(C(=O)C3CCOC3)CC2)c2ccccc12` (stereo partly shown) [Compound 270], in experiment [1], the IC50 is below 100 nM. For the same compound, the EC50 in experiment [2] was above 2000 nM.

In experiment [1], `COc1cc(C)[nH]c(=O)c1CNC(=O)c1c(C)n([C@H](C)C2CCN(Cc3ccncn3)CC2)c2ccccc12` [Compound 259] came in with an IC50 below 100 nM. For the same compound, the EC50 in experiment [2] was below 400 nM.

Compound `COc1cc(C)[nH]c(=O)c1CNC(=O)c1c(C)n([C@H](C)C2CCN(C(=O)C3CCC(C)CC3)CC2)c2ccccc12` (mixture of isomers) [Compound 234] came in with an IC50 in experiment [1] below 100 nM. Also, in experiment [2], the EC50 is below 400 nM.

For the compound `CCS(=O)(=O)N1CCC([C@@H](C)n2c(C)c(C(=O)NCc3c(OCC(F)(F)F)cc(C)[nH]c3=O)c3ccccc32)CC1` [Compound 163], the EC50 in experiment [2] lay in the range of 400 to 2000 nM.

`COc1cc(C)[nH]c(=O)c1CNC(=O)c1c(C)n([C@H](C)C2CCN(Cc3cccnc3)CC2)c2ccccc12` [Compound 244] displayed an IC50 in experiment [1] below 100 nM. For the same compound, in experiment [2], the EC50 was in the range of 400 to 2000 nM.

The compound `COc1cc(C)[nH]c(=O)c1CNC(=O)c1c(C)n([C@H](C)C2CCN(CC3CCO3)CC2)c2ccccc12` (stereo partly shown) [Compound 179] returned an IC50 in experiment [1] below 100 nM. The EC50 in experiment [2] lay in the range of 400 to 2000 nM.

As to `COCC(F)(F)CN1CCC([C@@H](C)n2c(C)c(C(=O)NCc3c(OC)cc(C)[nH]c3=O)c3ccccc32)CC1` [Compound 181], the IC50 in experiment [1] is below 100 nM. Also, in experiment [2], the EC50 is below 400 nM.

Regarding `COc1cc(C)[nH]c(=O)c1CNC(=O)c1c(C)n([C@H](C)C2CCN(C(C)C(F)F)CC2)c2ccccc12` (stereo partly shown) [Compound 177], the IC50 in experiment [1] was below 100 nM. For the same compound, in experiment [2], the EC50 is below 400 nM.

Turning to `COC(C)(C)CN1CCC([C@@H](C)n2c(C)c(C(=O)NCc3c(Cl)cc(C)[nH]c3=O)c3ccccc32)CC1` [Compound 262], the IC50 in experiment [1] was below 100 nM. Also, in experiment [2], the EC50 is below 400 nM.

With `COc1cc(C)[nH]c(=O)c1CNC(=O)c1c(C)n([C@H](C)C2CCN(C(=O)C(C)(C)OC)CC2)c2ccccc12` [Compound 236], the IC50 in experiment [1] was below 100 nM. In experiment [2], the EC50 was below 400 nM.

Compound `COc1cc(C)[nH]c(=O)c1CNC(=O)c1c(C)n([C@H](C)C2CCN(CC3(C)COC3)CC2)c2ccccc12` [Compound 220] returned an IC50 in experiment [1] below 100 nM. Also, in experiment [2], the EC50 was below 400 nM.

With `COc1cc(C)[nH]c(=O)c1CNC(=O)c1c(C)n([C@H](C)C2CCN(CC3COC3)CC2)c2ccccc12` [Compound 180], the IC50 in experiment [1] was below 100 nM. Moreover, the EC50 in experiment [2] is above 2000 nM.

On to `COc1cc(C)[nH]c(=O)c1CNC(=O)c1c(C)n([C@H](C)C2CCN(C3CC3)CC2)c2ccccc12` [Compound 254], for which the IC50 in experiment [1] was below 100 nM. In addition, the EC50 in experiment [2] is below 400 nM.

In experiment [1], `CCC(C)C(=O)N1CCC([C@@H](C)n2c(C)c(C(=O)NCc3c(OC)cc(C)[nH]c3=O)c3ccccc32)CC1` (stereo partly shown) [Compound 210] had an IC50 below 100 nM. Moreover, the EC50 in experiment [2] fell in the range of 400 to 2000 nM.

`COc1cc(C)[nH]c(=O)c1CNC(=O)c1c(C)n([C@H](C)C2CCN(C(=O)N3CCC(F)(F)CC3)CC2)c2ccccc12` [Compound 249] gave an IC50 in experiment [1] below 100 nM. In experiment [2], the EC50 lay in the range of 400 to 2000 nM.

Compound `COc1cc(C)[nH]c(=O)c1CNC(=O)c1c(C)n([C@H](C)C2CCN(C(=O)C3(C)CCCC3)CC2)c2ccccc12` [Compound 191] had an IC50 in experiment [1] below 100 nM. The EC50 in experiment [2] fell in the range of 400 to 2000 nM.

As for `COc1cc(C)[nH]c(=O)c1CNC(=O)c1c(C)n([C@H](C)C2CCN(Cc3ccc(C#N)cc3)CC2)c2ccccc12` [Compound 232], the IC50 in experiment [1] is below 100 nM. The EC50 in experiment [2] is below 400 nM.

For the compound `COc1cc(C)[nH]c(=O)c1CNC(=O)c1c(C)n([C@H](C)C2CCN(C(=O)C3CCN(C)CC3)CC2)c2ccccc12` [Compound 243], the 50% inhibitory concentration (IC50) in experiment [1] is below 100 nM. The EC50 in experiment [2] is above 2000 nM.

In experiment [1], `CC(=O)N1CC(N2CCC([C@@H](C)n3c(C)c(C(=O)NCc4c(C)cc(C)[nH]c4=O)c4ccccc43)CC2)C1` [Compound 231] came in with an IC50 below 100 nM. The EC50 in experiment [2] was 400 to 2000 nM.

`COc1cc(C)[nH]c(=O)c1CNC(=O)c1c(C)n([C@H](C)C2CCN(C)CC2F)c2ccccc12` (stereo partly shown) [Compound 221] showed an IC50 in experiment [1] below 100 nM. The EC50 in experiment [2] is below 400 nM.

On to `COc1cc(C)[nH]c(=O)c1CNC(=O)c1c(C)n([C@H](C)C2CCN(C(=O)C3CCCC3)CC2)c2ccccc12` [Compound 235], for which the IC50 in experiment [1] was below 100 nM. Also, the EC50 in experiment [2] lay within 400 to 2000 nM.

For `COc1cc(C)[nH]c(=O)c1CNC(=O)c1c(C)n([C@H](C)C2CCN(C(=O)C3CCOCC3)CC2)c2ccccc12` [Compound 269], the IC50 in experiment [1] was below 100 nM. Besides, the EC50 in experiment [2] is 400 to 2000 nM.

Turning to `COc1cc(C)[nH]c(=O)c1CNC(=O)c1c(C)n([C@H](C)C2CCN(C(=O)CC(C)C)CC2)c2ccccc12` [Compound 213], the IC50 in experiment [1] is below 100 nM. Further, the EC50 in experiment [2] was below 400 nM.

As to `COc1cc(C)[nH]c(=O)c1CNC(=O)c1c(C)n([C@H](C)C2CCN(Cc3cnccc3C#N)CC2)c2ccccc12` [Compound 268], the IC50 in experiment [1] is below 100 nM. In experiment [2], the EC50 is below 400 nM.

The compound `COc1cc(C)[nH]c(=O)c1CNC(=O)c1c(C)n([C@H](C)C2CCN(Cc3ccc(C#N)cn3)CC2)c2ccccc12` [Compound 250] returned an IC50 in experiment [1] below 100 nM. The EC50 in experiment [2] is below 400 nM.

Take `CCCc1cc(C)[nH]c(=O)c1CNC(=O)c1c(C)n([C@H](C)C2CCN(S(=O)(=O)CC)CC2)c2ccccc12` [Compound 132]: the EC50 in experiment [2] was below 400 nM.

As to `COc1cc(C)[nH]c(=O)c1CNC(=O)c1c(C)n([C@H](C)C2CCN(CC3(C(F)(F)F)CCC3)CC2)c2ccccc12` [Compound 135], the EC50 in experiment [2] is below 400 nM.

Consider `COc1cc(C)[nH]c(=O)c1CNC(=O)c1c(C)n([C@H](C)C2CCN(CC(C)=O)CC2)c2ccccc12` [Compound 169], for which the IC50 in experiment [1] (2 nM EZH2, 0.2 μM 3H SAM, 0.2 μM biotinylated oligonucleosomes, 3.6 μM H3K27me3 peptide, 60 min, read-out: EZH2_nuc_BSA_Brij_1.5 (IC50)) is below 100 nM.

On to `COc1cc(C)[nH]c(=O)c1CNC(=O)c1c(C)n([C@H](C)C2CCN(CC(C)(C)OC)CC2)c2ccccc12` [Compound 128], for which, in experiment [2], the EC50 was below 400 nM.

These data come from patent US9969716B2, “Indole derivatives as modulators of methyl modifying enzymes, compositions and uses thereof” (Constellation Pharmaceuticals, Inc., priority 2013, dated 2018).
